Our source for the development of spasms values is US7863499B2, “Model of infantile spasm syndrome” (Albert Einstein College of Medicine of Yeshiva University, priority 2007, dated 2011).

In this experiment the test system is rat pups. In words: Induction of spasm-like seizures in rat pups (video monitoring). In kind it is in vivo. Conditions: PCPA only, five pups. Here is the method: […] The pups were injected with DOX i.c.v. and LPS intracerebrally in the right centroparietal cortex at P3; PCPA was administered i.p. at P5. […] There were no sex differences and the data were combined.
Behavioral seizures and spasm-like episodes. […] Seven pups had recurrent seizures resembling spasms. Spasms were first observed at P7 in 60% of the pups. […] The spasms were characterized by the abrupt onset of flexion of the trunk with extension of the limbs at the height of the spasm (the sequence is shown in FIG. 2). In two pups, extension spasms were sometimes observed. The spasms lasted from 1 to 5 seconds.
Anesthesia. Rat pups were anesthetized with 2% isoflurane in 100% O2 continuously delivered by a small facemask, custom-fitted to the stereotaxic frame.
Injections of DOX and LPS. Both male and female rats were used. At P3, stereotaxic injections of DOX and LPS were performed using a 25 μL Hamilton syringe. DOX was injected into the right ventricle (AP=−1.0, ML=1.1, DV=−3.3, reference to bregma) and LPS into the right cerebral hemisphere (AP=−1.0, ML=1.0, DV=2.0, reference to bregma). The injection volume is 5 μl for DOX and 7 μl for LPS. The pups were allowed to recover before returning to the dam.
Titration of doses of agents used to induce spasms. […]

On to `N[C@@H](Cc1ccc(Cl)cc1)C(=O)O` (racemic) [PCPA, p-chlorophenylalanine], for which the development of spasms entry was “none of those pups developed spasms”.
